Measurements as given in article PMC6277434, “Discovery of a potent HMG-CoA reductase degrader that eliminates statin-induced reductase accumulation and lowers cholesterol” (Nature Communications, 2018).

Key:
WT HMGCR = target: T1, WT HMGCR (Cricetulus griseus, UniProt P00347); test: Degradation of transfected wild-type HMGCR (with Insig-1) in CHO-7 cells; assay type: cell-based; conditions: cells co-expressing wild-type HMGCR and Insig-1, 5 h
T1 construct: expressed in transfected cells; host or cells: CHO-7
T1 sequence (P00347 1-887): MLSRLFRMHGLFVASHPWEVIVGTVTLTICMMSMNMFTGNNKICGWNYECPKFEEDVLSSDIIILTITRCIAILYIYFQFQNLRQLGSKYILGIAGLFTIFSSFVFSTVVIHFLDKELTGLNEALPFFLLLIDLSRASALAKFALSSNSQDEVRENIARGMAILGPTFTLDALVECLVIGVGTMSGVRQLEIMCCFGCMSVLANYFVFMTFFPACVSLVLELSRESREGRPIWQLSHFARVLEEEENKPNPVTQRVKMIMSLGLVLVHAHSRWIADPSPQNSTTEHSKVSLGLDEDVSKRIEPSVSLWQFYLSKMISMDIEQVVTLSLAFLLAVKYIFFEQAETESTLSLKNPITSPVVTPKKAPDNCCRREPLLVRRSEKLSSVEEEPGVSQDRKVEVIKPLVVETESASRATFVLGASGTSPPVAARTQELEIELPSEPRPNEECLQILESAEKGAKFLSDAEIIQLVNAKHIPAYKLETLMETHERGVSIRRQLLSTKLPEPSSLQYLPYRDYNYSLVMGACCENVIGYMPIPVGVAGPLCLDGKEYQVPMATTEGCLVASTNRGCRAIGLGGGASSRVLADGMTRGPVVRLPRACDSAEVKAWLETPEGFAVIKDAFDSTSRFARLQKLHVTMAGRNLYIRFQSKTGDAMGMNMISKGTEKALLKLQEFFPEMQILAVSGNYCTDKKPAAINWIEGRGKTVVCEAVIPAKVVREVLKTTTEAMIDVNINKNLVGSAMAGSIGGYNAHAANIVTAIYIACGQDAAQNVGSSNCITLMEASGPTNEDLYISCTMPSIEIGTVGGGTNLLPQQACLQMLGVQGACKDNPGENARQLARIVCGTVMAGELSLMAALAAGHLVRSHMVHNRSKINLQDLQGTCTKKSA
T1 sequence (O15503 1-277 partner): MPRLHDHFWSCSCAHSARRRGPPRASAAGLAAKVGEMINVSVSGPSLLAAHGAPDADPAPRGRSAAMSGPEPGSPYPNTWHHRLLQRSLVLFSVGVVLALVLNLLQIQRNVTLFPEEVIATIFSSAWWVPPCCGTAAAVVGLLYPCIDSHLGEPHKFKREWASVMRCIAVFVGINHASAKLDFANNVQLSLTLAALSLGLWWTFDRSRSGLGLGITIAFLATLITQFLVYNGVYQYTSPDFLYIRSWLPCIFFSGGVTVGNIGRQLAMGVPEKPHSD
Description: HMGCR protein of DMSO-treated cells was defined as 100. […] Lysates were immunoprecipitated and pellets were probed for anti-ubiquitin (P4D1) and anti-HMGCR (A9). e CHO-7 cells were transfected with indicated plasmids and treated as in d. Lysates were immunoprecipitated with anti-Flag M2 beads, and pellets were probed for anti-ubiquitin (HA) and anti-HMGCR (Flag). f CHO-7 cells were transfected with indicated plasmids, then treated with Cmpd 81 for 5 h. […] Data are from three independent experiments and presented as mean ± SD. Source data are provided as a Source Data File.
Cells were harvested and homogenized in the RIPA buffer (50 mM Tris-HCl, pH 8.0, 150 mM NaCl, 2 mM MgCl2, 1.5% NP-40, 0.1% SDS, and 0.5% sodium deoxycholate) supplemented with protease cocktail inhibitor, 10 μM MG-132, 10 μg ml^−1 leupeptin and 1 mM phenylmethylsulfonyl fluoride. The protein concentrations of lysates were determined using BCA method (Beyotime). […] Western blot images were captured by Amersham Imager 600 (GE Healthcare), and integrated optical intensities of each band were quantified by Image-Pro Plus 6 software (Media Cybernetics). […]

HMGCR = target: T2, HMGCR (Cricetulus griseus, UniProt P00347); test: HMGCR ubiquitination assay in CHO-7 cells; assay type: cell-based, Chinese hamster
T2 construct: endogenous in cells; host or cells: CHO-7, CHG, SRD-13A, SRD-15
T2 sequence (P00347 1-887): T1 sequence (P00347 1-887)
Description: To detect endogenous HMGCR ubiquitination, CHO-7 cells were treated as described in figure legends. Two 10-cm dishes of cells were harvested and lysed in 600 μl of immunoprecipitation buffer (1× PBS, 1% Triton X-100, 5 mM EDTA, 5 mM EGTA) supplemented with protease inhibitor cocktail, 0.1 mM Leupeptin, 10 μM MG-132, and 10mM N-ethylmaleimide. Lysates were pre-cleared with 3 μg of normal rabbit IgG (D110502, Sangon) and 40 μl of protein A/G plus-agarose (sc-2003, Santa Cruz Biotechnology) for 1 h at 4 °C, followed by immunoprecipitation with 10 μg of rabbit polyclonal anti-HMGCR and 100 μl of protein A/G plus-agarose overnight at 4 °C. After washing with immunoprecipitation buffer containing protease inhibitor cocktail for three times, immunoprecipitates were eluted with 2× loading buffer (75 mM Tris-HCl, pH 6.8, 50 mM NaCl, 6% SDS, 15% glycerol, and 0.02% bromophenol blue) at 95 °C for 10 min. Supernatants were then mixed with equal volume of membrane protein solubilization buffer and incubated at 37 °C for 30 min. Samples were finally subjected to immunoblotting as described above.
To assay for the ubiquitination of overexpressed HMGCR protein, cells were first transfected with indicated plasmids. A similar protocol was employed except that lysates were immunoprecipitated with 40 μl of anti-Flag M2 affinity gel (A2220, Sigma-Aldrich).

Hmgcr mRNA = test: RT-qPCR of exogenous WT and mutated Hmgcr mRNA in Huh7 cells; assay type: cell-based; conditions: lovastatin
Description: Cells were treated as described in corresponding figure legends, then total RNA was extracted from cells or mouse livers using TRI Reagent (T9424, Sigma-Aldrich). Equal amounts of RNA from cells or mice receiving the same treatment were pooled were used for cDNA synthesis with oligo dT and reverse transcriptase MLV (Promega). Gene expression was analyzed by quantitative real-time PCR on a Stratagene Mx30005PTM Q-PCR Systems. The primers used were listed in Supplementary Tables 2–4.
a CHO-7 cells were treated with or without 1 μM lovastatin in medium B with 5%
LDPS and 50 μM mevalonate for 16 h, and harvested for total RNA isolation and
RT-qPCR. Quantifications of the relative mRNA levels of indicated SREBP target
(1 picture or pasted object on this page, not shown here)

C=CCC(O)(CC=C)CCCC(C)C1CCC2C3C(O)C=C4C(C)(C)C(O)CCC4(C)C3CCC12C (stereo not shown) [Cmpd 81]
protein level of transfected wild-type HMGCR (WT HMGCR): a reduction of the protein level | ubiquitination of endogenous HMGCR (HMGCR; CHO-7, with 10 μM MG-132, 3 h): dose-dependent increase | ubiquitination of transfected HMGCR (HMGCR; cells co-expressing wild-type HMGCR and Insig-1): markedly increase

CC[C@H](C)C(=O)O[C@H]1C[C@@H](C)C=C2C=C[C@H](C)[C@H](CC[C@@H]3C[C@@H](O)CC(=O)O3)[C@H]21 [Lovastatin, lovastatin]
mRNA levels of both WT and mutated Hmgcr (Hmgcr mRNA): did not show obvious change
